Measurements: US20150272939A1, “Identification of Small Molecule Inhibitors of Jumonji AT-Rich Interactive Domain 1A (JARID1A) and 1B (JARID1B) Histone Demethylase” (Yale University, priority 2012, published 2015)

Columns and labels:
[1] = AlphaScreen counterscreen against bio-H3K4me2 peptide in the absence of enzyme (artifact signal); details: for Artifact signal: effect of the compound when it is incubated with bio-H3K4me2 peptide: counterscreen, no enzyme; for Artifact Signal (percent): effect of the compound when incubated with bio-H3K4me2 peptide (counterscreen, no enzyme);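 as to all read-outs here: counterscreen run without enzyme against bio-H3K4me2 peptide to remove false positive hits from the JARID1 demethylase AlphaScreen screen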
[2] = molecular target: T1, JARID1B (Homo sapiens, UniProt Q9UGL1); assay: FLAG-JARID1B histone demethylase assay with AlphaScreen detection (HTS and dose response); type: biochemical; details: for inhibition at 20 µM: high-throughput screen, compound 20 μM, standard demethylase conditions (10 μM α-KG, 50 μM Fe (II)), read-out: Inhibitory effect (percent); for Validation result of HTS active: effect of the compound in the JARID1B AlphaScreen demethylase assay / Assay Signal (percent): validation of HTS actives; for Validation result of HTS active: effect of the compound in the JARID1B AlphaScreen demethylase assay: total signal before subtraction of artifact signal; for Assay − Artifact Signal (percent): assay signal minus artifact signal; for Assay Signal (percent): effect of compound in JARID1B AlphaScreen assay;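 as to Assay Signal (percent): compound tested at 20 µM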;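 as to Assay − Artifact Signal (percent): compound tested at 20 µM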;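 as to all read-outs here: FLAG-tagged JARID1B at 4 nM acting on a biotinylated H3K4me3 peptide, demethylation read by AlphaScreen luminescence, with hits checked against bio-H3K4me2 without enzyme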
T1 construct: The FLAG tagged full length JARID1B enzyme was expressed in Sf21 insect cells using FLAG-JARID1B baculoviruses; FLAG (N); made in house; host or cells: Sf21 insect cells (baculovirus)
T1 sequence (Q9UGL1 whole entry): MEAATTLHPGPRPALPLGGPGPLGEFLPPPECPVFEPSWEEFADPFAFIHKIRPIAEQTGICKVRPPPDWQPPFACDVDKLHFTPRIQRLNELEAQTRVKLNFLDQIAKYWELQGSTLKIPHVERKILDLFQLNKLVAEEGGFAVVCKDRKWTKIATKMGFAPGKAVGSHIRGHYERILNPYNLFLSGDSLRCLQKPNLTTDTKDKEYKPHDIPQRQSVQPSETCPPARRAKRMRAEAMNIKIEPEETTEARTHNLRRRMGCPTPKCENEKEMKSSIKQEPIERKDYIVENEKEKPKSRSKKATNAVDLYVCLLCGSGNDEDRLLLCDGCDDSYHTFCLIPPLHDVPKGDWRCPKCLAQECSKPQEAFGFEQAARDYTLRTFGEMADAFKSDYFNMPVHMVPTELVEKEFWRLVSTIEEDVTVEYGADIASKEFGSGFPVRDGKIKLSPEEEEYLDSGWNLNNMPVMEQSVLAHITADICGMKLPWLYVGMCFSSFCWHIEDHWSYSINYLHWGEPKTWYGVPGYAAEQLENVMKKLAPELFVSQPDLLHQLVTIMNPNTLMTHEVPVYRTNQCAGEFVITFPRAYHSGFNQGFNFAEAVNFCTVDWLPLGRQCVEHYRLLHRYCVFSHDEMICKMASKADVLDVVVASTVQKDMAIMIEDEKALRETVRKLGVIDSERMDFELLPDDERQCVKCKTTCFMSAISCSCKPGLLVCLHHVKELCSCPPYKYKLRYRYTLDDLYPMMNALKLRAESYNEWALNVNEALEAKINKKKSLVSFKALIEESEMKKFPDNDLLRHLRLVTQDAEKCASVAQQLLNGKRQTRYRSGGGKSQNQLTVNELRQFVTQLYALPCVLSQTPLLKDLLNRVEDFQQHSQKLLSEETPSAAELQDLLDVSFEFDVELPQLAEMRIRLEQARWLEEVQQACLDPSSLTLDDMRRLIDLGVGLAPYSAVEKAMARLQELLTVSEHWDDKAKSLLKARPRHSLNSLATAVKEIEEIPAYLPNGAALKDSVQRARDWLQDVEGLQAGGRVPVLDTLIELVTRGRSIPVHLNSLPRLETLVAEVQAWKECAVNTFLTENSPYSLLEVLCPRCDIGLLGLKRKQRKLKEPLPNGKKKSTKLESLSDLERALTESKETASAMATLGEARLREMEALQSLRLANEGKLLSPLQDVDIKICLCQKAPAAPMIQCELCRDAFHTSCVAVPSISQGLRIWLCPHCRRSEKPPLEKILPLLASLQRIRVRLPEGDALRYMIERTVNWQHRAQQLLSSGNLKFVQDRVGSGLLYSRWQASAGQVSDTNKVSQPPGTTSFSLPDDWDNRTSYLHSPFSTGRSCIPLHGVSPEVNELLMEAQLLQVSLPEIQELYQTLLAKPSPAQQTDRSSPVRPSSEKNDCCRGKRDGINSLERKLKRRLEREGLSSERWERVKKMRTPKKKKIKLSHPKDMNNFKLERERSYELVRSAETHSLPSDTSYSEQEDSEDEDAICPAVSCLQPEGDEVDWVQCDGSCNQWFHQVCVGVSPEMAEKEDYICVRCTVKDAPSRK

Clc1cccc(N2CCN(Cc3ccc4ccccc4c3)CC2)c1 [YU105195]
Artifact signal: effect of the compound when it is incubated with bio-H3K4me2 peptide [1]: 5.28 | inhibition at 20 µM [2]: 38.9% | Validation result of HTS active: effect of the compound in the JARID1B AlphaScreen demethylase assay [2]: 8.75

Cc1ccc([N+](=O)[O-])cc1N(CC(=O)Nc1ccc(Cl)c(C(F)(F)F)c1)S(C)(=O)=O [YU121632]
Artifact signal: effect of the compound when it is incubated with bio-H3K4me2 peptide [1]: −1.84 | inhibition at 20 µM [2]: 59.2% | Validation result of HTS active: effect of the compound in the JARID1B AlphaScreen demethylase assay [2]: 2.95

c1cc(CNc2ccc(N3CCOCC3)cc2)ccn1 [YU129874]
Artifact Signal (percent) [1]: 4.18% | Assay − Artifact Signal (percent) [2]: 67.88% | inhibition at 20 µM [2]: 74.5% | Assay Signal (percent) [2]: 72.06%

CC(=O)NNC(=O)c1ccncc1 [YU129955]
Artifact Signal (percent) [1]: −4.84% | Assay − Artifact Signal (percent) [2]: 96.89% | inhibition at 20 µM [2]: 88.7% | Assay Signal (percent) [2]: 92.06%

OC1CCN(C(=S)NC2CC2)CC1 [YU144896]
Artifact signal: effect of the compound when it is incubated with bio-H3K4me2 peptide [1]: −14.49 | inhibition at 20 µM [2]: 90.6% | Validation result of HTS active: effect of the compound in the JARID1B AlphaScreen demethylase assay [2]: −9.38

CCn1c(S)nnc1-c1ccncc1 [YU144949]
Artifact Signal (percent) [1]: −3.18% | Assay − Artifact Signal (percent) [2]: 43.88% | inhibition at 20 µM [2]: 38.8% | Assay Signal (percent) [2]: 40.70%

CCC(=O)c1c(O)n(C)c(=O)n(C)c1=O [YU145029]
Artifact Signal (percent) [1]: 0.11% | Assay − Artifact Signal (percent) [2]: 34.42% | inhibition at 20 µM [2]: 61.6% | Assay Signal (percent) [2]: 34.53%

CCOc1c(O)ccc(C=O)c1[N+](=O)[O-] [YU145037]
Artifact signal: effect of the compound when it is incubated with bio-H3K4me2 peptide [1]: −1.09 | inhibition at 20 µM [2]: 66.1% | Validation result of HTS active: effect of the compound in the JARID1B AlphaScreen demethylase assay [2]: −4.02

O=C1NC(=O)C(c2ccc(Cl)cc2)N1 (stereo not shown) [YU145089]
Artifact signal: effect of the compound when it is incubated with bio-H3K4me2 peptide [1]: −1.01 | inhibition at 20 µM [2]: 78.3% | Validation result of HTS active: effect of the compound in the JARID1B AlphaScreen demethylase assay [2]: 4.23

CSc1nc2cc(F)c(F)cc2n1C [YU145132]
Artifact signal: effect of the compound when it is incubated with bio-H3K4me2 peptide [1]: −7.06 | inhibition at 20 µM [2]: 91.5% | Validation result of HTS active: effect of the compound in the JARID1B AlphaScreen demethylase assay [2]: −6.93

CC(NC(=O)c1ccco1)c1ccncc1 (stereo not shown) [YU145239]
Artifact signal: effect of the compound when it is incubated with bio-H3K4me2 peptide [1]: 0.21 | inhibition at 20 µM [2]: 42.4% | Validation result of HTS active: effect of the compound in the JARID1B AlphaScreen demethylase assay [2]: 7.68

Cc1ccc(CNn2cnnc2S)cc1 [YU145266]
Artifact Signal (percent) [1]: 1.04% | Assay − Artifact Signal (percent) [2]: 44.07% | inhibition at 20 µM [2]: 45.7% | Assay Signal (percent) [2]: 45.11%

COc1ccc2c(CCN)c[nH]c2c1.Cl [YU145407]
Artifact Signal (percent) [1]: −1.79% | Assay − Artifact Signal (percent) [2]: 8.55% | inhibition at 20 µM [2]: 43% | Assay Signal (percent) [2]: 6.76%

Cc1ccsc1CNn1cnnc1S [YU145432]
Artifact Signal (percent) [1]: 1.67% | Assay − Artifact Signal (percent) [2]: 46.83% | inhibition at 20 µM [2]: 33.3% | Assay Signal (percent) [2]: 48.50%

O=C(O)c1cccc(NCc2ccncc2)c1 [YU145461]
Artifact Signal (percent) [1]: 0.89% | Assay − Artifact Signal (percent) [2]: 95.48% | inhibition at 20 µM [2]: 94.6% | Assay Signal (percent) [2]: 96.37%

Cc1ccc(C)n1NC(=O)c1ccc(O)cc1 [YU145520]
Artifact signal: effect of the compound when it is incubated with bio-H3K4me2 peptide [1]: 1.80 | inhibition at 20 µM [2]: 36.9% | Validation result of HTS active: effect of the compound in the JARID1B AlphaScreen demethylase assay [2]: 3.79

N#Cc1c(O)nc(S)nc1-c1ccccc1 [YU145521]
Artifact Signal (percent) [1]: −2.92% | Assay − Artifact Signal (percent) [2]: 9.91% | inhibition at 20 µM [2]: 68.2% | Assay Signal (percent) [2]: 6.99%

c1ccc2c(NCc3ccncc3)cccc2c1 [YU145649]
Artifact Signal (percent) [1]: 2.10% | Assay − Artifact Signal (percent) [2]: 87.87% | inhibition at 20 µM [2]: 87.7% | Assay Signal (percent) [2]: 89.97%

Cc1cc(C)nc(N(C#N)C(=S)N(C)C)n1 [YU145653]
Artifact Signal (percent) [1]: −8.59% | Assay − Artifact Signal (percent) [2]: 27.17% | Assay Signal (percent) [2]: 18.58%

CCCN1CCN(C(=O)c2ccncc2)CC1 [YU145702]
Artifact Signal (percent) [1]: −1.53% | Assay − Artifact Signal (percent) [2]: 45.86% | inhibition at 20 µM [2]: 35.9% | Assay Signal (percent) [2]: 44.33%

CC(C)n1c(-c2ccccc2F)n[nH]c1=S [YU145747]
Artifact Signal (percent) [1]: 4.74% | Assay − Artifact Signal (percent) [2]: 31.49% | inhibition at 20 µM [2]: 31.3% | Assay Signal (percent) [2]: 36.22%

CC(O)Cc1nnc(S)n1-c1ccccc1 (stereo not shown) [YU145796]
Artifact Signal (percent) [1]: −7.79% | Assay − Artifact Signal (percent) [2]: 40.83% | inhibition at 20 µM [2]: 34.8% | Assay Signal (percent) [2]: 33.04%

Cl.Cn1cccc1CNCc1ccncc1 [YU145853]
Artifact Signal (percent) [1]: 8.99% | Assay − Artifact Signal (percent) [2]: 57.65% | inhibition at 20 µM [2]: 76.6% | Assay Signal (percent) [2]: 66.64%

CN(C)c1cccc2c(C=O)ccc(N(C)C)c12 [YU145980]
Artifact Signal (percent) [1]: 7.56% | Assay − Artifact Signal (percent) [2]: 28.03% | inhibition at 20 µM [2]: 32.3% | Assay Signal (percent) [2]: 35.60%

Cc1cc(C)nc(Nc2ccc(N(C)C)cc2)n1 [YU146020]
Artifact Signal (percent) [1]: 3.15% | Assay − Artifact Signal (percent) [2]: 8.99% | inhibition at 20 µM [2]: 30.9% | Assay Signal (percent) [2]: 12.15%

Cc1ccc(-n2sc3ccccc3c2=O)cc1 [YU146026]
Artifact Signal (percent) [1]: 2.88% | Assay − Artifact Signal (percent) [2]: 85.63% | inhibition at 20 µM [2]: 87.8% | Assay Signal (percent) [2]: 88.51%

COC(=O)Nc1nnc(CC2CCCC2)s1 [YU146034]
Artifact Signal (percent) [1]: <2.79% | Assay − Artifact Signal (percent) [2]: 21.12% | inhibition at 20 µM [2]: 33% | Assay Signal (percent) [2]: 18.33%

O=C(NCCOc1ccccc1)c1ccccc1 [YU146037]
Artifact signal: effect of the compound when it is incubated with bio-H3K4me2 peptide [1]: −1.42 | inhibition at 20 µM [2]: 32.6% | Validation result of HTS active: effect of the compound in the JARID1B AlphaScreen demethylase assay [2]: −0.56

c1cc(CNc2ccc3c(c2)OCCO3)ccn1 [YU146041]
Artifact Signal (percent) [1]: 0.99% | Assay − Artifact Signal (percent) [2]: 54.24% | inhibition at 20 µM [2]: 48.7% | Assay Signal (percent) [2]: 55.23%

C=CCNCCCCOc1cccc(OCC)c1 [YU146294]
Artifact Signal (percent) [1]: 5.94% | Assay − Artifact Signal (percent) [2]: 8.13% | inhibition at 20 µM [2]: 36.5% | Assay Signal (percent) [2]: 14.08%

COc1ccc(CNn2c(C)nnc2S)cc1 [YU146438]
Artifact Signal (percent) [1]: 8.17% | Assay − Artifact Signal (percent) [2]: 42.15% | inhibition at 20 µM [2]: 36.9% | Assay Signal (percent) [2]: 50.33%

O=Cc1ccc(-c2ccc(S(=O)(=O)O)cc2)o1 [YU146454]
Artifact Signal (percent) [1]: −4.14% | Assay − Artifact Signal (percent) [2]: 68.83% | inhibition at 20 µM [2]: 42.3% | Assay Signal (percent) [2]: 64.68%

COc1ccccc1OCc1nnc(S)n1C [YU146471]
Artifact Signal (percent) [1]: −1.64% | Assay − Artifact Signal (percent) [2]: 47.93% | inhibition at 20 µM [2]: 36.4% | Assay Signal (percent) [2]: 46.29%

N#CC(=Cc1ccc(-c2ccccc2)o1)C(N)=S [YU146534]
Artifact Signal (percent) [1]: 4.53% | Assay − Artifact Signal (percent) [2]: 10.89% | inhibition at 20 µM [2]: 32.8% | Assay Signal (percent) [2]: 15.42%

O=C(O)CCCSCC(=O)Nc1ccccc1 [YU146590]
Artifact Signal (percent) [1]: 2.50% | Assay − Artifact Signal (percent) [2]: 10.85% | inhibition at 20 µM [2]: 60.2% | Assay Signal (percent) [2]: 13.35%

COc1cc(C=O)ccc1OC(=O)c1ccncc1 [YU146698]
Artifact Signal (percent) [1]: −5.12% | Assay − Artifact Signal (percent) [2]: 53.39% | inhibition at 20 µM [2]: 52.5% | Assay Signal (percent) [2]: 48.27%

Fc1cccc(Cl)c1CNn1cnnc1S [YU146768]
Artifact Signal (percent) [1]: −0.52% | Assay − Artifact Signal (percent) [2]: 49.49% | inhibition at 20 µM [2]: 34% | Assay Signal (percent) [2]: 48.97%

C=CCn1c(-c2ccc([N+](=O)[O-])cc2)n[nH]c1=S [YU147005]
Artifact Signal (percent) [1]: 3.36% | Assay − Artifact Signal (percent) [2]: 34.06% | inhibition at 20 µM [2]: 36.8% | Assay Signal (percent) [2]: 37.42%
